melting point | Structure (SMILES)
220 to 222 °C | C[C@@H](OC(=O)Nc1ccc(-c2c(C#N)c3ccc(-c4ccccn4)cc3n2C2CCC2)cc1)C(F)(F)F [Compound 2959]
240 to 241 °C | CC(C)(C)c1csc(Nc2ccc(-c3c(C#N)c4ccc(Oc5ncccn5)cc4n3C3CCC3)cc2)n1 [Compound 3179]
104 to 106 °C | C[C@@H](OC(=O)Nc1ccc(-c2c(C#N)c3ccc(C(=O)N4CCN(C)CC4)cc3n2C2CCC2)cc1)C1CC1 [Compound 3106]
193 to 198 °C | C[C@@H](OC(=O)Nc1ccc(-c2c(C#N)c3ccc(OC4CCS(=O)(=O)CC4)cc3n2CC2CC2)cc1)C1CC1 [Compound 3233]
167 to 170 °C | CCCS(=O)(=O)Nc1ccc(-c2c(C#N)c3ccc(Oc4nccc(C)n4)cc3n2CC2CC2)c(C)c1 [Compound 2980]
215 to 217 °C | CCCS(=O)(=O)Nc1ccc(-c2c(C#N)c3ccc(Oc4nccnc4C#N)cc3n2C2CCC2)cc1C [Compound 3288]
130 °C (dec.) | CC(C)NS(=O)(=O)Nc1ccc(-c2c(C#N)c3ccc(Oc4nccnc4Cl)cc3n2C2CC2)cc1 [Compound 2947]
120 to 125 °C | C[C@H](NS(=O)(=O)Nc1ccc(-c2c(C#N)c3ccc(Oc4ncccc4Cl)cc3n2C2CCC2)cc1)C1CC1 [Compound 3017]
205 to 208 °C | N#Cc1nccnc1Oc1ccc2c(C#N)c(-c3ccc(NS(=O)(=O)CC4CCC4)cc3)n(CC3CC3)c2c1 [Compound 3238]
128 to 129 °C | CCCS(=O)(=O)Nc1ccc(-c2c(C#N)c3cc(C(=O)N4CCOCC4)ccc3n2C2CCC2)cc1 [Compound 3098]
88 to 91 °C | CCS(=O)(=O)NCCOc1ccc2c(C#N)c(-c3ccc(NC(=O)OC(C)C4CC4)cc3)n(C3CCC3)c2c1 (stereo not shown) [Compound 3229]
235 °C (dec.) | C[C@@H](OC(=O)Nc1ccc(-c2c(C#N)c3ccc(N4CCS4(=O)=O)cc3n2C2CCC2)cc1)C1CC1 [Compound 3318]
167 to 170 °C | N#Cc1c(-c2ccc(Oc3cnccn3)cc2)n(C2CCC2)c2cc(OC3CCOCC3)ccc12 [Compound 3168]
234 to 236 °C | N#Cc1c(-c2ccc(Nc3nc(-c4ccc(F)cc4)cs3)cc2)n(C2CCC2)c2cc(OCCF)ccc12 [Compound 3206]
80 to 81 °C | C[C@@H](OC(=O)Nc1ccc(-c2c(C#N)c3ccc(Oc4ncccn4)cc3n2C2CCC2)cc1OC(F)(F)F)C1CC1 [Compound 3034]
94 to 96 °C | CC(C)OC(=O)Nc1ccc(-c2c(C#N)c3ccc(Oc4ncccn4)cc3n2C2CCC2)cc1OC(F)(F)F [Compound 3035]

melting point | Structure (SMILES)
181 to 185 °C | CCc1cnc(Oc2ccc3c(C#N)c(-c4ccc(NC(=O)O[C@H](C)C5CC5)cc4C)n(C4CCC4)c3c2)nc1 [Compound 3058]
218 to 220 °C | CCCS(=O)(=O)Nc1ccc(-c2c(C#N)c3ccc(Oc4nccnc4C#N)cc3n2C2CCC2)cc1 [Compound 3181]
211 to 215 °C | CCOc1ccc2c(C#N)c(-c3ccc(NC(=O)OC4CCN(C(C)=O)CC4)cc3)n(C3CCC3)c2c1 [Compound 3072]
194 to 195 °C | CCOc1ccc2c(C#N)c(-c3ccc(NC(=O)OCCS(C)(=O)=O)cc3)n(C3CCC3)c2c1 [Compound 3079]
195 to 197 °C | CC(C)Nc1ccc(-c2c(C#N)c3ccc(Oc4ncccc4C#N)cc3n2C2CC2)cc1 [Compound 3213]
154 to 156 °C | C[C@@H](OC(=O)Nc1ccc(-c2c(C#N)c3ccc(Oc4ncccc4F)cc3n2C2CC2)cc1)C1CC1 [Compound 3007]
191 to 194 °C | CCCS(=O)(=O)Nc1ccc(-c2c(C#N)c3ccc(Oc4ncccc4C(C)=O)cc3n2C2CCC2)cc1 [Compound 3311]
168 to 169 °C | N#Cc1c(-c2ccc(Nc3ccc(F)c(C(F)(F)F)c3)cc2)n(C2CCC2)c2cc(OC3CCOCC3)ccc12 [Compound 3156]
284 to 285 °C | Cc1cccn(-c2ccc3c(C#N)c(-c4ccc(NC(=O)OC(C)C)cc4)n(C4CCC4)c3c2)c1=O [Compound 3339]
121 to 124 °C | N#Cc1c(-c2ccc(NCCCc3ccccc3)cc2)n(C2CCC2)c2cc(OCCF)ccc12 [Compound 3240]
212 to 213 °C | N#Cc1c(-c2ccc(Nc3ncccn3)cc2)n(CC2CC2)c2cc(OCCF)ccc12 [Compound 3251]
141 to 145 °C | CC(C)OC(=O)Nc1ccc(-c2c(C#N)c3ccc(OCCC4COC(C)(C)O4)cc3n2C2CCC2)cc1 (stereo not shown) [compound 1428, (4-{3-cyano-1-cyclobutyl-6-[2-(2,2-dimethyl-[1,3]dioxolan-4-yl)-ethoxy]-1H-indol-2-yl}-phenyl)-carbamic acid isopropyl ester]
88 to 102 °C | Cc1ccc(-c2ccc3c(C#N)c(-c4ccc(NC(=O)O[C@H](C)C5CC5)cc4)n(C4CCC4)c3c2)nc1 [Compound 3002]
227 to 229 °C | N#Cc1c(-c2cnc(NC3CC3)nc2)n(C2CCC2)c2cc(Oc3ncccn3)ccc12 [Compound 3328]
244 to 245 °C | C[C@@H](OC(=O)Nc1ccc(-c2c(C#N)c3ccc(-n4ccccc4=O)cc3n2C2CCC2)cc1)C(F)(F)F [Compound 3316]

More lines, now with the values behind:

Structure (SMILES) | melting point
CC(C)NC(=O)Nc1ccc(-c2c(C#N)c3ccc(OCC(O)Cn4ccnc4)cc3n2C2CCC2)cc1 (stereo not shown) [Compound 1421] | 138 to 140 °C
CCn1c(-c2ccc(NS(=O)(=O)CC)cc2)c(C#N)c2ccc(C(=O)N3CCN(c4ccccc4)CC3)cc21 [Compound 1362] | 236 to 238 °C
N#Cc1c(-c2ccc(NC(=O)OC3CCC3)cc2)n(C2CCC2)c2ccc(OCCn3cncn3)cc12 [Compound 2677] | 190 to 192 °C
CC(C)n1c(-c2ccc(NC(=O)O[C@H](C)C3CC3)cc2)c(C#N)c2ccc(O[C@@H]3CCOC3)cc21 [Compound 2743] | 151 to 153 °C
CCn1c(-c2ccc(NC(=O)N3CCCC3)cc2)c(C#N)c2ccc(OCCOC)cc21 [Compound 1381] | 151 to 154 °C
COCCOc1ccc2c(C#N)c(-c3ccc(NC(=O)O[C@H](C)C4CC4)cc3)n(C3CC3)c2c1 [Compound 2711] | 157 to 159 °C
Cc1nccc(Oc2ccc3c(C#N)c(-c4ccc(NC(=O)NC(C)C)cc4)n(C4CCC4)c3c2)n1 [Compound 2761] | 240 to 245 °C
COCCOc1ccc2c(C#N)c(-c3ccc(NC(=O)O[C@H](C)C4CC4)cc3)n(C3CCC3)c2c1 [Compound 2702] | 116 to 117 °C
CCOc1ccc2c(C#N)c(-c3ccc(NC(=O)NCCCOC)cc3)n(C3CCC3)c2c1 [Compound 1409] | 152 to 155 °C
CCn1c(-c2ccc(NC(=O)C3CC3)cc2)c(C#N)c2ccc(OCCNCCN3CCOCC3)cc21 [Compound 1394] | 96.5 to 100.6 °C
COCCOc1ccc2c(C#N)c(-c3ccc(NC(=O)O[C@H](C)C4CC4)cc3)n(C(C)C)c2c1 [Compound 2719] | 88 to 100 °C
CCOc1ccc2c(C#N)c(-c3ccc(S(=O)(=O)N4CCC[C@H]4CO)cc3)n(C3CCC3)c2c1 [Compound 2689] | 180 to 183 °C
COCCOc1ccc2c(C#N)c(-c3ccc(NC(=O)OC(C)c4ccc(F)cc4)cc3)n(C3CC3)c2c1 (stereo not shown) [Compound 1439] | 74 to 76 °C
CCn1c(-c2ccc(NC(=O)N3CCC(C)CC3)cc2)c(C#N)c2ccc(OCCOC)cc21 [Compound 1379] | 152 to 155 °C
CCCS(=O)(=O)Nc1ccc(-c2c(C#N)c3ccc(OCCO)cc3n2C2CCC2)cc1 [Compound 1451] | 163 to 164 °C
C[C@@H](OC(=O)Nc1ccc(-c2c(C#N)c3ccc(C(=O)N4CCSCC4)cc3n2C2CCC2)cc1)C1CC1 [Compound 2793] | 148 to 151 °C
CCCS(=O)(=O)Nc1ccc(-c2c(C#N)c3ccc(OCCCO)cc3n2C2CCC2)cc1 [Compound 1450] | 162 to 163 °C

Structure (SMILES) | melting point
N#Cc1c(-c2ccc(N3CCCS3(=O)=O)cc2)n(C2CC2)c2cc(OC3CCOCC3)ccc12 [Compound 2941] | 219 to 224 °C
C[C@@H](OC(=O)Nc1ccc(-c2c(C#N)c3ccc(OC4COCOC4)cc3n2C2CCC2)cc1)C(F)(F)F [Compound 2885] | 189 to 190 °C
CCn1c(-c2ccc(NC(=O)N(CCOC)CCOC)cc2)c(C#N)c2ccc(OCCOC)cc21 [Compound 1382] | 110 to 114 °C
CCn1c(-c2ccc(N3CCCS3(=O)=O)cc2)c(C#N)c2ccc(N3CCN(S(=O)(=O)C4CC4)CC3)cc21 [Compound 1357] | 278 to 280 °C
CCSc1ccc2c(C#N)c(-c3ccc(NC(=O)OC(C)C)cc3)n(C3CCC3)c2c1 [Compound 2713] | 150 to 152 °C
CC(C)C(OC(=O)Nc1ccc(-c2c(C#N)c3ccc(OC4CCOC4)cc3n2C2CCC2)cc1)C(C)C (stereo not shown) [Compound 1454] | 183 to 184 °C
CCn1c(-c2ccc(NC(=O)OC3CCCC3)cc2)c(C#N)c2ccc(OCCOC)cc21 [Compound 1407] | 137 to 140 °C
C[C@@H](OC(=O)Nc1ccc(-c2c(C#N)c3ccc(OCCn4ccnc4)cc3n2C2CC2)cc1)c1ccc(F)cc1 [Compound 2828] | 225 to 230 °C
CCn1c(-c2ccc(N3CCCS3(=O)=O)cc2)c(C#N)c2ccc(OC3CCOCC3)cc21 [Compound 2940] | 222 to 227 °C
C[C@@H](NC(=O)Nc1ccc(-c2c(C#N)c3ccc(Oc4ncccn4)cc3n2C2CCC2)cc1)c1ccc(F)cc1 [Compound 2819] | 150 °C (dec.)
CC(C)(C)OC(=O)Nc1ccc(-c2c(C#N)c3ccc(N4CCOCC4)cc3n2C2CCC2)cc1 [Compound 2764] | 218 to 220 °C
COCCN(C)C(=O)c1ccc2c(C#N)c(-c3ccc(NS(=O)(=O)C4CC4)cc3)n(C3CCC3)c2c1 [Compound 2824] | 201 to 203 °C
COc1ccc2c(F)c(-c3ccc(NC(=O)NC(C)C)cc3)n(CC3CC3)c2c1 [Compound 2277] | 217 to 221 °C
CC(C)n1c(-c2ccc(NC(=O)O[C@H](C)C3CC3)cc2)c(C#N)c2ccc(N3CCOCC3)cc21 [Compound 2942] | 191 to 193 °C
CCOc1ccc2c(C#N)c(-c3ccc(C(=O)NCCc4ccccn4)cc3)n(C3CCC3)c2c1 [Compound 2250] | 194 to 195 °C
CC(C)OC(=O)Nc1ccc(-c2c(C#N)c3ccc(OC4COCOC4)cc3n2C2CCC2)cc1 [Compound 2894] | 208 to 210 °C

From patent US7772271B2 (priority 2004, dated 2010)
